{"source": "paper PMC4428071", "about": "“Structural basis for epitope masking and strain specificity of a conserved epitope in an intrinsically disordered malaria vaccine candidate” (Scientific Reports, 2015)", "molecular_target": "6D8 scFv", "assay": "Isothermal titration calorimetry (ITC) of MSP2 and peptides into 6D8 scFv", "format": "binding, mouse", "conditions": "ITC into 6D8 scFv; 20 mM sodium phosphate, 150 mM NaCl, pH 7.4, 25°C; scFv 20 µM, titrant from 200 µM stocks; error estimates from replicate titrations against 6D8 scFv and mAb (n = 3–5); limit of determinable affinities approx. 5 nM", "description": "The interaction between 6D8 and MSP2, was examined further using isothermal titration calorimetry (ITC). […] Full-length recombinant MSP2 binds 6D8 scFv with lower affinity, permitting quantification by ITC. Even though 6D8 recognizes a fully conserved epitope in MSP2, the affinities of 6D8 scFv for full-length 3D7 and FC27 MSP2 differ by as much as 5-fold (Fig. 3C,D). To explore the basis of this strain-specificity, we synthesized peptides encompassing the minimal 6D8 epitope and extending C-terminally into the variable region. […] Identical affinities were observed when 6D8 IgG was used in place of the scFv (Fig. S4).\nThe affinity of 6D8 IgG and scFv for synthetic peptides and recombinant MSP2 was determined by ITC (Microcal ITC-200, GE Healthcare) and SPR (Biacore T200, GE Healthcare) using a Mouse Antibody Capture kit (GE Healthcare) (SI Materials and methods). Antibody binding to lipid-tethered MSP2 was assessed SPR using an L1 chip (GE Healthcare). Vesicles of POPC containing 1 mol % DOGS-NTA were adsorbed onto the chip, and loaded with Ni^2+ and then FC27 MSP2–6His. […]\nMSP2 peptides were purified on a reverse-phase C18 column (Zorbax, 10 x 300 mm) using a linear gradient of 5 to 40% of solvent B (90% acetonitrile / 9.9% water / 0.1% TFA) against solvent A (0.1% TFA in water) over 40 min. The purity of MSP2 peptides was assessed by mass spectrometry (LC-MS). […]"}
{"substance": "Ac-NAYNMSIRR-NH2 [MSP2_14-22]", "values": [{"measurement": "Kd", "result": "~5", "unit": "nM"}]}
